Measurements reported in patent US20260209299A1, “TROP2 IMMUNOGENIC PEPTIDE” (ASTON SCIENCE INC., priority 2023, published 2026).

Tests used:
[1] = test system: Type 1 helper T cells (CD4^+IFN-γ^+); assay: FACS analysis of Type 1 helper T cells (CD4+IFN-γ+) after peptide treatment of PBMCs; assay type: cell-based, human
Experimental: (§1) To this end, the degree of stimulation of Type 1 helper T cells (CD4^+IFN-γ^+), stimulation of interleukin 10 (IL-10)-producing regulatory T cells (CD4^+IL-10+), stimulation of regulatory T cells (CD4^+CD25^+Foxp3^+), and stimulation of Type 2 helper T cells secreting IL-4 and Th17 cells secreting IL-17 according to the treatment with the immunogenic peptide were confirmed.
(§2) Healthy human peripheral blood mononuclear cells (PBMCs; 2,000,000 cells per well) were cultured in 96× round bottom well plates in the presence or absence of anti-CD3 (clone HIT) and peptide at the indicated ratios.
(§3) Specifically, the peptide synthesized in Example 1 at a concentration of 10 μg/ml was cultured with 1 μg/ml of anti-CD3 in a 37° C. incubator for 72 hours. The culture medium consisted of complete RPMI1640 medium supplemented with 10% fetal bovine serum, 10 mM HEPES, 50 µM B-ME, and penicillin/streptomycin/L-glutamine. After 72 hours of culture, the cells were stimulated with Phorbol 12-myristate 13-acetate (50 ng/ml) and Ionomycine (1 μg/mL), which are intracellular cytokine secretion stimulators. To prevent cytokine secretion into the culture medium, the cells were co-stimulated with GolgiPlug, a protein transport inhibitor, at a concentration of 1/100 diluted in PBS for 6 hours in a 37° C. incubator. After stimulation, the cells were washed twice with PBS.
(§4) To determine only the viable cells among the PBMC cells, the cells were labeled with eFlor780-conjugated Fixable Viability dye diluted 1:100 in PBS for 15 minutes at 4° C., and washed twice with stain buffer after 15 minutes. After washing, the cells were surface-labeled with BV421-conjugated anti-CD4 (clone RPA-T4) and PE-Cy5-conjugated anti-CD25 (clone 2A3) antibodies diluted 1:100 in stain buffer for 30 minutes at 4° C. Then, the cells labeled with cell surface proteins were washed twice with stain buffer. Next, to detect cytokines secreted intracellularly, the cells were fixed for 1 hour at room temperature with fixation buffer and then washed with permeabilization buffer. To enable antibodies to detect intracellular cytokines, the fixed cells were labeled overnight at 4° C. with PerCP-Cy5. 5-conjugated anti-IFN-g (clone 4S. B3), Brilliant Violet 510-conjugated anti-IL-4 (clone MP4-25D2), anti-Foxp3 (clone PCH101), and PE-conjugated anti-IL-10 diluted 1:100 in permeabilization (clone JES3-19F1) buffer. Then, the cytokine-labeled cells were washed twice with stain buffer, and cell flow assays were performed using an Attune NxT Acoustic Focusing Cytometer (Invitrogen). Data analysis was performed using Flowjo v10.7.1 software (FlowJo).
1) Calculate the difference between the distribution of IFN-γ secreting T cells and the distribution of IL-10 secretion (A value),
2) Calculate the difference between the distribution of IFN-γ secreting T cells and the Treg distribution (B value),
3) Use the formula “(A value×0.8)+(B value×0.2)” as the final combined scoring, and
(§5) The activity results of the immunogenic peptide candidate group were confirmed by first isolating CD4^+ T cells (helper T cells) from PBMCs, and then classifying the isolated cells into Type 1 helper T cells (CD4^+IFN-γ^+), Type 2 helper T cells (CD4^+IL-4^+), regulatory T cells (CD4^+CD25^+Foxp3^+), and interleukin-10 (IL-10)-producing regulatory T cells (CD4^+IL-10^+) and analyzing the results.

[2] = test system: interleukin 10 (IL-10)-producing regulatory T cells (CD4^+IL-10^+); assay: FACS analysis of IL-10-producing regulatory T cells (CD4+IL-10+) after peptide treatment of PBMCs; assay type: cell-based; conditions: healthy human PBMCs, peptide 10 μg/ml with 1 μg/ml anti-CD3, 72 hours, then PMA/ionomycin + GolgiPlug 6 hours
Experimental: as §2, §3, §4

[3] = test system: regulatory T cells (CD4^+CD25^+Foxp3^+); assay: FACS analysis of regulatory T cells (CD4+CD25+Foxp3+) after peptide treatment of PBMCs; assay type: cell-based; conditions: healthy human PBMCs, peptide 10 μg/ml with 1 μg/ml anti-CD3, 72 hours, then PMA/ionomycin + GolgiPlug 6 hours
Experimental: as §1, §2, §3, §4, §5

[4] = test system: Type 2 helper T cells (CD4^+IL-4^+); assay: FACS analysis of Type 2 helper T cells (CD4+IL-4+) after peptide treatment of PBMCs; assay type: cell-based, human; conditions: FIG. 2; peptide together with PMA, ionomycin
Experimental: as §1, §2, §3
as §4, with “(FlowJo). […]” for “(FlowJo).”

[5] = test system: interferon-gamma (IFN-γ)-forming T cells; assay: ELISpot assay of IFN-γ-forming T cells using PBMC; assay type: cell-based; conditions: FIG. 5; human PBMCs, peptide 10 μg/mL, 70-72 hours
Experimental: The frequency of interferon-gamma (IFN-γ, 3420-4HPW-10, MabTech, Stockholm, Sweden) and interleukin-10 (IL-10, 3430-4HPW-10, MabTech)-forming T cells was assessed using the ELISpot assay.
Specifically, the pre-coated plates were washed four times with 200 μL/well of PBS. Human PBMCs (PCS-800-011, ATCC, Virginia, USA) 2×10^6/mL were dispensed onto the coated plate, and TROP2 peptides were dispensed at 10 μg/mL each and reacted with the PBMCs. The plate reacted under a total volume of 200 μL/well was incubated at 5% CO2, 37° C. for 70-72 hours. Then, the plate was washed 5 times with 200 μL of PBS, and 200 μL of diluted detection antibody (IFN-γ:7-B6-1-biotin; IL-10:12G8-biotin) was added to the wells of the plate, and then reacted at room temperature for 2 hours. After the reaction, the plate was washed 5 times with 200 μL of PBS, and 1:1000 diluted streptavidin-HRP was added at 100 μL/well, followed by reaction at room temperature for 1 hour. Then, the resulting product was washed 5 times with 200 μL of PBS, 100 μL/well of TMB substrate solution was added and reacted at RT for up to 5-10 minutes, and then the spots were counted using the AID iSpot reader system (AID, Strassberg, Germany).

MDA-MB-231 cell line [6] = assay: Antitumor effect of cancer vaccine alone in Xenograft cancer mouse model; assay type: in vivo, athymic Balb/C nude mice; conditions: peptide + CFA/IFA + mGM-CSF, 100 μg per mouse subcutaneously on days 1, 8, 15, 22; vs control group G1
Experimental: (§6) Five-week-old athymic Balb/C nude mice weighing 16 to 18 g were purchased and acclimated for at least 3 to 7 days.
(§7) The MDA-MB-231 cell line, a human-derived triple-negative breast cancer cell line, was suspended at 5×10^6 cells per individual in 200 μl of a 1:1 mixture of PBS and Matrigel and injected subcutaneously into the axillary region between the right scapular area and the thoracic wall of the mouse.
On Day 16 after MDA-MB-231 cell transplantation, 32 mice (mean tumor size 143.8±2.9 mm^3) with tumor sizes reaching approximately 150 mm^3 were selected and assigned to each group of 8 mice.
Each group was divided into Group 1 (G1): PBS+CFA/IFA, Group 2 (G2): SEQ ID NO: 3 peptide+CFA/IFA+mGM-CSF, Group 3 (G3): SEQ ID NO: 10 peptide+CFA/IFA+mGM-CSF, and Group 4 (G4): SEQ ID NO: 17 peptide+CFA/IFA+mGM-CSF.
(§8) Next, the immunogenic peptide (TROP2 peptide) according to the present invention was administered subcutaneously at a dose of 100 μg per mouse on days 1, 8, 15, and 22 (the 16th day after cell transplantation was designated as Day 0, and the following day was designated as Day 1) for a total of 4 times, and the tumor size for each individual was calculated 11 times (0, 1, 4, 7, 11, 14, 18, 21, 25, 28, and 32) from Day 0 to Day 32. Then, the tumor growth change rate was calculated by comparison with the control group of each Test Group.

MDA-MB-231 cell line [7] = assay: Antitumor effect of cancer vaccine and antibody-drug conjugate (ADC) in Xenograft cancer mouse model; assay type: in vivo, athymic Balb/C nude mice; conditions: peptide mix + CFA/IFA + mGM-CSF subcutaneously days 1, 8, 15, 22; Trodelvy 0.81 mg/kg intravenously Days 4 and 11
Experimental: as §6, §7, §8
In order to confirm the antitumor effect of the combination therapy of the immunogenic peptide discovered in the present invention and antibody-drug conjugate (ADC), the antitumor effect was analyzed for the following groups using the same experimental method as in Example 4. […]

Row | Substance | Combined Score ([1]; (A value×0.8)+(B value×0.2)) | IFN-gamma − IL-10 ([1]; A value: difference between distribution of IFN-γ secreting T cells and distribution of IL-10 secretion) [%] | IFN-gamma − Treg ([1]; B value: difference between distribution of IFN-γ secreting T cells and Treg distribution) [%] | IFN-gamma (Th1, CD4+) ([1]; FACS, healthy human PBMCs, peptide 10 μg/ml with 1 μg/ml anti-CD3, 72 hours, then PMA/ionomycin + GolgiPlug 6 hours) [%] | stimulation of Type 1 helper T cells (CD4+IFN-γ+), flow cytometry plot ([1]; FIG. 1, peptide together with PMA, ionomycin) | effect of stimulating Type 1 helper T cells while not stimulating Type 2 helper T cells and regulatory T cells ([1]; overall FACS conclusion, Table 2) | IL-10 (Th2, CD4+) [2] [%] | Treg (CD25+/Foxp3) [3] [%] | stimulation of Type 2 helper T cells (CD4+IL-4+), flow cytometry plot [4] | number of cells secreting IFN-γ (ELISpot spots) [5] | TGI rate (%) at Day 32 (MDA-MB-231 cell line [6]) [%] | TGI rate (%) at Day 32 (MDA-MB-231 cell line [7]) [%]
1 | PLRLPLLLLVLAAVTGHTAAQD [SEQ ID NO: 3] | 20.36 | 21.66 | 15.16 | 24.00 | stimulated Type 1 helper T cells (CD4^+IFN-γ^+) to a high degree | most excellent | 2.34 | 8.84 | hardly stimulated Type 2 helper T cells (CD4^+IL-4^+) | dramatically increased the secretion of IFN-γ | 52.4 | 
2 | sacituzumab govitecan [Trodelvy] |  |  |  |  |  |  |  |  |  |  |  | 46.1
